Assay results as given in article PMC7911959, “Selective Inhibition of Human Monoamine Oxidase B by 5-hydroxy-2-methyl-chroman-4-one Isolated from an Endogenous Lichen Fungus Daldinia fissa” (Journal of Fungi, 2021).
Values after ≈ are worked out from the molar mass of the structure shown. “Also recorded” adds a separate entry of the source.

Columns and labels:
MAO-B [1] = system: T1, MAO-B; assay: Inhibitor reversibility analysis by dialysis; type: biochemical, human; conditions: for MAO-B activity recovered after dialysis: ~2× IC50, dialyzed; for MAO-B activity before dialysis (undialyzed): ~2× IC50, undialyzed
T1 construct: purchased Sigma-Aldrich

liver or brain MAO = conditions: read-out: IC50 MAO enzyme; cited from earlier work
[2] = DPPH antioxidant activity assay; conditions: isolated compounds, 100 µg/mL (footnote b)
Procedure: The antioxidant activity was measured at 100 µg/mL of the extracts using 0.1 mM 2,2-diphenyl-1-picrylhydrazyl (DPPH). After 15 min of pre-incubation, absorbance was measured at 517 nm.

Human recombinant MAO-A = target: T2, Human recombinant MAO-A (Homo sapiens, UniProt P21397); assay: MAO-A activity assay (kynuramine, 316 nm); type: biochemical
T2 construct: purchased Sigma-Aldrich
T2 sequence (P21397 1-527): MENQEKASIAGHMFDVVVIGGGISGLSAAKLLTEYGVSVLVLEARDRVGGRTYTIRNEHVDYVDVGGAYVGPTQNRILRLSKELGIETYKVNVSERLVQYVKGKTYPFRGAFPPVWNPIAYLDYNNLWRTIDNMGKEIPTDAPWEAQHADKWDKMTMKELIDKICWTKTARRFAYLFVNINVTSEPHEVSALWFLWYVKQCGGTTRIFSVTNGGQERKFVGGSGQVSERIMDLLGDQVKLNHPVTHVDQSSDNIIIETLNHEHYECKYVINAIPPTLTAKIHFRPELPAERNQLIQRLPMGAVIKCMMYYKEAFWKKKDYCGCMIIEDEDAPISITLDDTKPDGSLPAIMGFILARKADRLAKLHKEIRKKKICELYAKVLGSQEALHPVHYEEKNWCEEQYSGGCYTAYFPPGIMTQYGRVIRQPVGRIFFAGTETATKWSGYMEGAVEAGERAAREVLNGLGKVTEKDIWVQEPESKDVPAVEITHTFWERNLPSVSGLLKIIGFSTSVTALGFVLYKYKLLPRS
Procedure: (§1) Human recombinant MAO-A and MAO-B enzymes were used, and the activities were measured in a final volume of 500 µL of 100 mM sodium phosphate buffer of pH 7.2, and 0.06 mM kynuramine (MAO-A), or 0.3 mM benzylamine (MAO-B).
(§2) The inhibitory activities of the isolated compounds were analyzed at a concentration of 2 µg/mL.

Human recombinant MAO-B = target: T3, Human recombinant MAO-B (Homo sapiens, UniProt P27338); assay: MAO-B activity assay (benzylamine, 250 nm); type: biochemical
T3 construct: purchased Sigma-Aldrich
T3 sequence (P27338 1-520): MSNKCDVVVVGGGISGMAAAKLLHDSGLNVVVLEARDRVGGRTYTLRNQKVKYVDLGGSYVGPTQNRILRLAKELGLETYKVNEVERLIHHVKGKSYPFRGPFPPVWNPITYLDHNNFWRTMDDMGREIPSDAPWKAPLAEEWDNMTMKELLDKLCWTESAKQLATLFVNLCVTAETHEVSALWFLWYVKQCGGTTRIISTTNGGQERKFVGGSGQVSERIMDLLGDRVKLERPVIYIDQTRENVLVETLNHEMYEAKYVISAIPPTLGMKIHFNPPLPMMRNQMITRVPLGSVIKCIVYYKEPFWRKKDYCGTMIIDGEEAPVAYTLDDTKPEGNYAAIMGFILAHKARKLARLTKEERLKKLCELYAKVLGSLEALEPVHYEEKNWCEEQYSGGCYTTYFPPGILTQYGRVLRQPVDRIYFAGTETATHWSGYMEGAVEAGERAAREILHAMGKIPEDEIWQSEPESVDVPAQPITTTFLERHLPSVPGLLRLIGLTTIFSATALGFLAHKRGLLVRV
Procedure: as §1, §2

[3] = system: HL-60 (human acute promyelocytic leukemia) cells; assay: Cytotoxicity, CCK-8 assay, HL-60; type: cell-based; conditions: 50 µM, 24 h treatment, CCK-8 4 h
Procedure: (§3) Cell viability was determined according to the cell counting kit (CCK)-8 assay method, using MDCK (Madin–Darby canine kidney) and HL-60 (human acute promyelocytic leukemia) cells, as normal and cancer cells, respectively. Briefly, MDCK and HL-60 cells were resuspended in Dulbecco’s modified eagle medium (DMEM) and Roswell Park Memorial Institute (RPMI)-1640, respectively, at 1 × 10^5 and 3 × 10^5 cells/mL, respectively. The cell suspension (100 µL) was added to each well of the 96-well plate and was incubated for 24 h at 5% CO2 and 37 °C. After incubation, 100 µL of the medium supplemented with 1, 3, 10, 30, and 50 µM of the compound was added to each well and incubated again. After 24 h, 100 µL of the solution was removed from each well, and CCK-8 (10 µL/well) was dispensed. After 2~4 h, the absorbance was detected at 450 nm with a microplate reader (Versamax, Molecular Devices, CA, USA).

BACE-1 = system: T4, BACE-1; assay: BACE-1 activity assay (detection kit, fluorescence); type: biochemical; conditions: isolated compounds, residual activity at 10 µg/mL (footnote a)
T4 construct: purchased Sigma-Aldrich
Procedure: BACE-1 assay was carried out using the BACE-1 activity detection kit and a fluorescence spectrometer (FS-2, Scinco, Seoul, Korea) by an excitation at 320 nm and an emission at 405 nm, after the reaction for 2 h at 37 °C [24].

horse serum BChE = target: T5, horse serum BChE (Equus caballus, UniProt P81908); assay: biochemical
T5 construct: electric eel AChE and horse serum BChE were used; purchased Sigma-Aldrich; host or cells: horse serum
T5 sequence (P81908 whole entry): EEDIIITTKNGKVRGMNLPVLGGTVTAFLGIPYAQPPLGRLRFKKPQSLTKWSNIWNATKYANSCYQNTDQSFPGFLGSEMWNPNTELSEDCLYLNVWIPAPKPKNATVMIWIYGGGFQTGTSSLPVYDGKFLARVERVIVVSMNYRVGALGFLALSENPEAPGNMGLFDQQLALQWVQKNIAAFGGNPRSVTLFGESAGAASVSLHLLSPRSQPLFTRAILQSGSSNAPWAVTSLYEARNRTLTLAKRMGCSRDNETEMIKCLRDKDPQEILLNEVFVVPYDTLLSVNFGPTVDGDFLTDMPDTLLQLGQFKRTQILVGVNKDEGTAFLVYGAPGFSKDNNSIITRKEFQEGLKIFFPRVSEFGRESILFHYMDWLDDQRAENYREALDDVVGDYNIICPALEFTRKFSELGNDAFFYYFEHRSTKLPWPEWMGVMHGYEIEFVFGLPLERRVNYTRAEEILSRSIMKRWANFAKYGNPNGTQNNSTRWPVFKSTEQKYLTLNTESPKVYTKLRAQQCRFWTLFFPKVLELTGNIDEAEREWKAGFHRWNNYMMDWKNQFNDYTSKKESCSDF
Procedure: (§4) For cholinesterase activity assay, electric eel AChE and horse serum BChE were used. Activities were measured according to the Ellman method, with slight modifications, in 50 mM sodium phosphate buffer (pH 7.5). After adding cholinesterase enzymes and the inhibitor, pre-incubation was applied for 15 min. After adding 0.5 mM 5,5-dithiobis (2-nitrobenzoic acid) (DTNB) 0.5 mM for color development, 0.5 mM acetyl thiocholine iodide (ATCI) or 0.5 mM butyrylthiocholine iodide (BTCI) was used as a substrate.

electric eel AChE = target: T6, electric eel AChE (Electrophorus electricus, UniProt O42275); assay: biochemical
T6 construct: purchased Sigma-Aldrich
T6 sequence (O42275 24-633): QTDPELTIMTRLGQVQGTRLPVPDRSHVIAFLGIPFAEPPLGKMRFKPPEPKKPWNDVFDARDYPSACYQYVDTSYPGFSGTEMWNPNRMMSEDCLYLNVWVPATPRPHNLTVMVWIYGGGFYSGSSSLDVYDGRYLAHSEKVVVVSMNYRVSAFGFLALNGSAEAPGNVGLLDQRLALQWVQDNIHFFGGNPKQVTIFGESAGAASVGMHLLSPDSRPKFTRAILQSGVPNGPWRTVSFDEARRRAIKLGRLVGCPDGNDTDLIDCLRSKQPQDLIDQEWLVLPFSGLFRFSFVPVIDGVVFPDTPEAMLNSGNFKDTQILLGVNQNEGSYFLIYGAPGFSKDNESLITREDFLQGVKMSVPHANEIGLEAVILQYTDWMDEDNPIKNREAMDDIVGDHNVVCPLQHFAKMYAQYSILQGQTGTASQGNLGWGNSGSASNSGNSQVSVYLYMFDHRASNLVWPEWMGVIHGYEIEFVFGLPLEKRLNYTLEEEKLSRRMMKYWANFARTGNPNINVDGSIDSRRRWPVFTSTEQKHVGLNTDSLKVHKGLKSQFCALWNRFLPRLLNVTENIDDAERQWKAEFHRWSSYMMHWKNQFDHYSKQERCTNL
Procedure: as §4

[4] = system: MDCK (Madin–Darby canine kidney) cells; assay: Cytotoxicity, CCK-8 assay, MDCK; type: cell-based; conditions: 50 µM, 24 h treatment, CCK-8 3 h
Procedure: as §3

MAO-B [5] = target: T1, MAO-B; conditions: co-crystallized ligand of PDB 4A79; reference not given; cited from earlier work
monoamine oxidase = target: monoamine oxidase; set-up: method as in PMID 27520493; conditions: cited from earlier work

Q: For C#CCN(C)Cc1ccccc1 [Pargyline, reference compound], which “MAO-B activity recovered after dialysis” value (MAO-B [1]) is on record?
A: The value was “not recovered at all”.

Q: For CCCCCC(=O)c1c(O)cc2c(c1O)C(=O)c1c(O)cc(OC)cc1C2=O [Solorinic acid], which IC50 (liver or brain MAO) is on record?
A: Its IC50 is 14.3 µM.

Q: Which results are given for CC1CC(=O)c2c(O)cccc2O1 (centres unmarked) [HMC, 5-hydroxy-2-methyl-chroman-4-one]?
A: % Inhibition DPPH [2]: 25.11 ± 2.12%; Reversibility of MAO-B inhibition (MAO-B [1]; dialysis, ~2× IC50): reversible inhibitor; MAO-B activity recovered after dialysis (MAO-B [1]): 80.6%; MAO-B activity before dialysis (undialyzed) (MAO-B [1]): 23.1%; IC50 (Human recombinant MAO-A): 14 ± 2.07 µM; remaining activity at 2 µg/mL (Human recombinant MAO-A; isolated compounds, 2 µg/mL, read-out: Residual Activity at 2 µg/mL (%) MAO-A): 55.8 ± 0.91%; IC50 (Human recombinant MAO-B): 3.23 ± 0.3 µM; Inhibition pattern (Lineweaver–Burk plots) (Human recombinant MAO-B; MAO-B): competitive inhibitor; remaining activity at 2 µg/mL (Human recombinant MAO-B; isolated compounds, 2 µg/mL, read-out: Residual Activity at 2 µg/mL (%) MAO-B): 13.2 ± 0.48%; Time-dependency: residual activities after preincubation (Human recombinant MAO-B; preincubation up to 30 min): not changed significantly; Selectivity for MAO-B compared to MAO-A (Human recombinant MAO-B; ratio of IC50 values): ~ 4 fold; Ki (Human recombinant MAO-B; secondary plot of Lineweaver–Burk slopes vs inhibitor concentration): 0.896 µM; Cell viability, HL-60 [3]: No cytotoxicity; also recorded: not decreased at all; Residual Activity (%) BACE-1 (BACE-1): 98.6 ± 2.04%; IC50 (horse serum BChE): > 40 µM; remaining activity at 2 µg/mL (horse serum BChE; isolated compounds, 2 µg/mL, read-out: Residual Activity at 2 µg/mL (%) BChE): 83.8 ± 5.89%; IC50 (electric eel AChE): > 40 µM; remaining activity at 2 µg/mL (electric eel AChE; isolated compounds, 2 µg/mL, read-out: Residual Activity at 2 µg/mL (%) AChE): 73 ± 1.13%; Cell viability, MDCK [4]: No cytotoxicity; also recorded: not decreased at all

Q: Which “MAO-B activity recovered after dialysis” value (MAO-B [1]) does the source give for NCCNC(=O)c1ccc(Cl)cn1 [Lazabemide, reference compound] here?
A: The value was 74.4%.

Q: And the “MAO-B activity before dialysis (undialyzed)” value (MAO-B [1])?
A: Its value is 26.0%.

Q: Which Ki (MAO-B [5]) does the source give for CCc1ccc(CCOc2ccc(CC3SC(=O)NC3=O)cc2)nc1 (centres unmarked) [P1B, pioglitazone] here?
A: Its Ki is 0.5 µM.

Q: Which IC50 (monoamine oxidase) does the source give for CC1Cc2cccc(O)c2C(=O)O1 (centres unmarked) [mellein, Mellein] here?
A: The IC50 was 50.2 µM.

Q: What about the IC50 monoamine oxidase (monoamine oxidase) of the same compound?
A: Its IC50 monoamine oxidase is 8.93 µg/mL (≈ 50.1 µM).
